The test has as its system Escherichia coli strain ATCC25922. The test can be described thus: standard microdilution assay to determine minimum inhibitory concentrations (MICs). The following applies: Escherichia coli, ATCC25922, Escherichia coli strain ATCC25922, microdilution; read-out: E. coli ATCC25922 MIC. Type of test: cell-based. The protocol:
Minimum inhibitory concentrations (MICs) are determined by the microdilution method, typically in a final volume of 100 microliters, according to protocols outlined by The Clinical and Laboratory Standards Institute [CLSI; formerly the National Committee for Clinical Laboratory Standards (NCCLS)]. See CLSI: Methods for dilution antimicrobial susceptibility tests for bacteria that grow aerobically; approved standard-fifth edition. Wayne, Pa.: NCCLS; 2000. The assays can be also be performed in microtiter trays according to conventional methodologies as published by the CLSI. See CLSI. Methods for Dilution Antimicrobial Susceptibility Tests for Bacteria That Grow Aerobically; Approved Standard—Seventh Edition. CLSI Document M7-A7 [ISBN 1-56238-587-9] CLSI, 940 West Valley Road, Suite 1400, Wayne Pa. 19087-1898 USA, 2006).
The compounds of the present invention were tested for antimicrobial activity. The compounds were run against Escherichia coli strain ATCC25922 using a standard microdilution assay to determine minimum inhibitory concentrations (MICs). […] A “N/A” means that data is unavailable. It will be recognized by one skilled in the art that the compounds can be assessed against other bacterial organisms and that the presentation of data for activity against Escherichia coli is illustrative and in no way is intended to limit the scope of the present invention. The compounds of the present invention can be assayed against a range of other microorganisms depending upon the performance activity desired to be gathered. Furthermore, the “+”, “−”, and “N/A” representation and the selection of a cutoff value of 16 micrograms/ml is also illustrative and in no way is intended to limit the scope of the present invention.
For orientation: In broth dilution the organism is exposed to a series of concentrations in liquid medium.

For the compound `NCCCNCc1ccc(-n2cc3cc(-c4ccccn4)[nH]c3nc2=O)cc1` [Compound 620], the MIC was more than 16 µg/mL.

Turning to `NCCCNCc1ccc(-n2cc3cc(Cc4ccccc4)[nH]c3nc2=O)cc1` [Compound 621], the MIC is more than 16 µg/mL.

With `NCCCNCc1ccc(-n2cc3cc(CC4CCCCC4)[nH]c3nc2=O)cc1` [Compound 622], the MIC was more than 16 µg/mL.

As for `NCCCNCc1ccc(-n2cc3cc(C4=CCCCC4)[nH]c3nc2=O)cc1` [Compound 623], the MIC is more than 16 µg/mL.

`NCCCNCc1ccc(-n2cc3cc(CCN)[nH]c3nc2=O)cc1` [Compound 624]: the MIC is less than 16 µg/mL.

On to `CC(C)(N)c1cc2cn(-c3ccc(CNCCCN)cc3)c(=O)nc2[nH]1` [Compound 625], for which the MIC is more than 16 µg/mL.

As to `NCCCNCc1ccc(-n2cc3cc(COc4ccccc4)[nH]c3nc2=O)cc1` [Compound 626], the MIC was more than 16 µg/mL.

On to `N=C(N)NCCCNCc1ccc(-n2cc3cc(CN4CCS(=O)(=O)CC4)[nH]c3nc2=O)cc1` [Compound 628], for which the MIC is more than 16 µg/mL.

Turning to `N=C(N)NCCCNCc1ccc(-n2cc3cc(-c4ccsc4)[nH]c3nc2=O)cc1` [Compound 629], the MIC was less than 16 µg/mL.

With `N=C(N)NCCCNCc1ccc(-n2cc3cc(COc4ccccc4)[nH]c3nc2=O)cc1` [Compound 630], the MIC was more than 16 µg/mL.

For the compound `CS(=O)(=O)c1ccc(-c2cn3cc(-c4ccc(CNCCCN)cc4)c(=O)nc3[nH]2)cc1` [Compound 631], the MIC is more than 16 µg/mL.

Turning to `CS(=O)(=O)c1ccc(-c2cn3cc(-c4ccc(CNCCCNC(=N)N)cc4)c(=O)nc3[nH]2)cc1` [Compound 632], the MIC is more than 16 µg/mL.

`NCCCNCc1ccc(-n2cc3cc(-c4ccncc4)[nH]c3nc2=O)cc1` [Compound 633]: the MIC was more than 16 µg/mL.

For the compound `CC(C)(C)c1ccc(-c2cc3cn(-c4ccc(CNCCCN)cc4)c(=O)nc3[nH]2)cc1` [Compound 634], the MIC is less than 16 µg/mL.

On to `CS(=O)(=O)c1ccc(-c2cn3cc(-c4ccc(CN(CCCN)CCCNC(=N)N)cc4)c(=O)nc3[nH]2)cc1` [Compound 635], for which the MIC is less than 16 µg/mL.

For `N=C(N)NCCCNCc1ccc(-n2cc3cc(CSc4n[nH]c(N)n4)[nH]c3nc2=O)cc1` [Compound 636], the MIC was more than 16 µg/mL.

Consider `N=C(N)NCCCNCc1ccc(-n2cc3cc(-c4cccc(NCC(=O)N5CCOCC5)c4)[nH]c3nc2=O)cc1` [Compound 637], for which the MIC is more than 16 µg/mL.

As to `N=C(N)NCCCN(CCCN)Cc1ccc(-c2cn3cc(-c4ccc(Br)cc4)[nH]c3nc2=O)cc1` [Compound 640], the MIC was less than 16 µg/mL.

`NCCCNCc1ccc(-n2cc3cc(-c4cccc(NCC(=O)N5CCNCC5)c4)[nH]c3nc2=O)cc1` [Compound 644]: the MIC is less than 16 µg/mL.

Consider `N=C(N)NCCCNCc1ccc(-n2cc3cc(-c4cccc(NCC(=O)N5CCNCC5)c4)[nH]c3nc2=O)cc1` [Compound 645], for which the MIC is less than 16 µg/mL.

Take `NCCCNCc1ccc(-c2cn3nc(C4CC4)[nH]c3nc2=O)cc1` [Compound 646]: the MIC was more than 16 µg/mL.

As to `NCCCNCc1ccc(-c2cn3nc(N)[nH]c3nc2=O)cc1` [Compound 647], the MIC is more than 16 µg/mL.

For the compound `NCCCNCc1ccc(-c2cn3cc(-c4ccc(C(=O)NC5CCNCC5)cc4)[nH]c3nc2=O)cc1` [Compound 648], the minimal inhibitory concentration (MIC) is less than 16 µg/mL.

For `NCCCNCc1ccc(-c2cn3cc(-c4ccc(C5=CCNCC5)cc4)[nH]c3nc2=O)cc1` [Compound 649], the MIC was less than 16 µg/mL.

On to `N=C(N)NCCCNCc1ccc(-c2cn3cc(-c4ccc(C5=CCN(C(=N)N)CC5)cc4)[nH]c3nc2=O)cc1` [Compound 650], for which the MIC is less than 16 µg/mL.

Regarding `N=C(N)NCCCNCc1ccc(-c2cn3cc(-c4ccc(C(=O)N5CCC(O)C5)cc4)[nH]c3nc2=O)cc1` (stereo not shown) [Compound 653], the MIC was more than 16 µg/mL.

On to `N=C(N)NCCCNCc1ccc(-c2cn3cc(-c4ccc(C(=O)N5CCOCC5)cc4)[nH]c3nc2=O)cc1` [Compound 654], for which the MIC was more than 16 µg/mL.

With `N=C(N)NCCCNCc1ccc(-n2cc3cc(-c4cccc(N5CCNCC5)c4)[nH]c3nc2=O)cc1` [Compound 655], the MIC is less than 16 µg/mL.

On to `N=C(N)NCCCNCc1ccc(-c2cn3nc(C4CC4)[nH]c3nc2=O)cc1` [Compound 661], for which the MIC was more than 16 µg/mL.

Turning to `NCCCNCc1ccc(-c2cn3nc(-c4ccc(F)cc4)[nH]c3nc2=O)cc1` [Compound 662], the MIC was more than 16 µg/mL.

In the case of `N=C(N)NCCCNCc1ccc(-c2cn3nc(-c4ccc(F)cc4)[nH]c3nc2=O)cc1` [Compound 663], the MIC is more than 16 µg/mL.

`CN(C)C1CCN(c2cccc(-c3cc4cn(-c5ccc(CNCCCN)cc5)c(=O)nc4[nH]3)c2)CC1` [Compound 665]: the MIC was less than 16 µg/mL.

As for `NCCCNCc1ccc(-c2cn3cc(-c4ccc(C(=O)N5CC[C@@H](F)C5)cc4)[nH]c3nc2=O)cc1` [Compound 668], the MIC was more than 16 µg/mL.

With `N=C(N)NCCCNCc1ccc(-c2cn3cc(-c4ccc(C(=O)N5CCN(c6ccc(F)cc6)CC5)cc4)[nH]c3nc2=O)cc1` [Compound 670], the MIC is more than 16 µg/mL.

For the compound `N=C(N)NCCCNCc1ccc(-c2cn3cc(-c4ccc(C(=O)N5CC[C@H](F)C5)cc4)[nH]c3nc2=O)cc1` [Compound 673], the MIC is more than 16 µg/mL.

Turning to `CN1CCN(c2cccc(-c3cc4cn(-c5ccc(CNCCCN)cc5)c(=O)nc4[nH]3)c2)CC1` [Compound 677], the MIC was less than 16 µg/mL.

Consider `CN1CCN(c2cccc(-c3cc4cn(-c5ccc(CNCCCNC(=N)N)cc5)c(=O)nc4[nH]3)c2)CC1` [Compound 678], for which the MIC was less than 16 µg/mL.

Regarding `Cc1cc(CNc2cn3cc(-c4ccc(CNCCCN)cc4)c(=O)nc3[nH]2)no1` [Compound 679], the MIC is more than 16 µg/mL.

With `NCCCNCc1ccc(-c2cn3cc(-c4ccc(C(=O)N5CCNCC5)cc4)[nH]c3nc2=O)cc1` [Compound 682, 6-{4-[(3-Amino-propylamino)-methyl]-phenyl}-2-[4-(piperazine-1-carbonyl)-phenyl]-1H-imidazo[1,2-a]pyrimidin-7-one], the MIC was less than 16 µg/mL.

With `N=C(N)NCCCNCc1ccc(-c2cn3cc(-c4ccc(C(=O)N5CCNCC5)cc4)[nH]c3nc2=O)cc1` [Compound 683], the MIC was less than 16 µg/mL.

For `N=C(N)NCCCNCc1ccc(-c2cn3cc(-c4ccc(C(=O)N5CCN(CCN6CCOCC6)CC5)cc4)[nH]c3nc2=O)cc1` [Compound 684], the MIC was more than 16 µg/mL.

As for `NCCCNCc1ccc(-n2cc3cc(CCNC4CCNCC4)[nH]c3nc2=O)cc1` [Compound 687], the MIC was less than 16 µg/mL.

Consider `N=C(N)NCCCNCc1ccc(-n2cc3cc(CCN(C(=O)c4ccccc4)C4CCNCC4)[nH]c3nc2=O)cc1` [Compound 688], for which the MIC is less than 16 µg/mL.

As for `N=C(N)NCCCNCc1ccc(-c2cn3cc(-c4ccc(C(=O)N5CCC(C(N)=O)C5)cc4)[nH]c3nc2=O)cc1` (stereo not shown) [Compound 692], the MIC is more than 16 µg/mL.

`N=C(N)NCCCNCc1ccc(-c2cn3cc(-c4ccc(C(=O)N5CCNC(=O)C5)cc4)[nH]c3nc2=O)cc1` [Compound 693]: the MIC was less than 16 µg/mL.

With `NCCCNCc1ccc(-n2cc3cc(-c4ccc(S(=O)(=O)N(Cc5ccc(Cl)c(Cl)c5)C5CCNCC5)cc4)[nH]c3nc2=O)cc1` [Compound 697], the MIC is less than 16 µg/mL.

As to `NCCCNCc1ccc(-c2cn3cc(-c4ccc(C(=O)N5CCS(=O)(=O)CC5)cc4)[nH]c3nc2=O)cc1` [Compound 698], the MIC was more than 16 µg/mL.

Consider `CN1CCN(C(=O)c2ccc(-c3cn4cc(-c5ccc(CNCCCN)cc5)c(=O)nc4[nH]3)cc2)CC1` [Compound 699], for which the MIC was more than 16 µg/mL.

Regarding `N=C(N)NCCCNCc1ccc(-c2cn3cc(-c4ccc(C(=O)N5CCS(=O)(=O)CC5)cc4)[nH]c3nc2=O)cc1` [Compound 700], the MIC was more than 16 µg/mL.

In the case of `CS(=O)(=O)N1CCN(C(=O)c2ccc(-c3cn4cc(-c5ccc(CNCCCN)cc5)c(=O)nc4[nH]3)cc2)CC1` [Compound 701], the minimum inhibitory concentration (MIC) was more than 16 µg/mL.

Consider `N=C(N)NCCCNCc1ccc(-c2cn3cc(-c4ccc(C(=O)N5C6CCC5CC(=O)C6)cc4)[nH]c3nc2=O)cc1` [Compound 703], for which the MIC was more than 16 µg/mL.

In the case of `N=C(N)NCCCNCc1ccc(-c2cn3cc(-c4ccc(C(=O)N5CCC(F)(F)CC5)cc4)[nH]c3nc2=O)cc1` [Compound 704], the MIC is more than 16 µg/mL.

On to `N=C(N)NCCCNCc1ccc(-c2cn3cc(-c4ccc(C(=O)NC5CCNC5)cc4)[nH]c3nc2=O)cc1` (stereo not shown) [Compound 705], for which the MIC is less than 16 µg/mL.

Turning to `CN1CCN(C(=O)c2ccc(-c3cn4cc(-c5ccc(CNCCCNC(=N)N)cc5)c(=O)nc4[nH]3)cc2)CC1` [Compound 706], the MIC was less than 16 µg/mL.

`NCCCNCc1ccc(-c2cn3nc(NC(=O)c4ccc(F)cc4)[nH]c3nc2=O)cc1` [Compound 709]: the MIC was more than 16 µg/mL.

Consider `NCCCNCc1ccc(-n2cc3cc(-c4ccc(S(=O)(=O)N(CC5CC5)C5CCNCC5)cc4)[nH]c3nc2=O)cc1` [Compound 711], for which the MIC was less than 16 µg/mL.

In the case of `N=C(N)NCCCNCc1ccc(-c2cn3cc(-c4ccc(C(=O)N5CCN(CCO)CC5)cc4)[nH]c3nc2=O)cc1` [Compound 713], the MIC was less than 16 µg/mL.

As to `CS(=O)(=O)N1CCN(C(=O)c2ccc(-c3cn4cc(-c5ccc(CNCCCNC(=N)N)cc5)c(=O)nc4[nH]3)cc2)CC1` [Compound 716], the minimum inhibitory concentration (MIC) is more than 16 µg/mL.

By MIC is commonly meant the least concentration at which growth counts as inhibited.

(Values after patent US9193731B2, “Antimicrobial compounds and methods of making and using the same” (Melinta Therapeutics, Inc., priority 2009, dated 2015).)
